This note sets out measurements from DBAASP.

Values after ≈ are worked out from the molar mass of the structure shown. A value given as a limit tells only on which side of the number the result lay.

Experiment in all cases: ≥ marks a high value that may be exact or a test limit, other limits are often not marked, values filed in µg/mL are converted to µM
In experiment [1] the test system is Staphylococcus aureus ATCC 25923.
In experiment [2] the test system is Staphylococcus epidermidis ATCC 12228.
The test system of experiment [3] is Bacillus subtilis ATCC 23857.
In experiment [4] the test system is Enterococcus faecalis ATCC 29212.
The test system of experiment [5] is Acinetobacter baumannii ATCC 19606.
In experiment [6] the test system is Klebsiella pneumoniae ATCC 700603.
In experiment [7] the test system is Pseudomonas aeruginosa ATCC 27853.
The subject of experiment [8] is Escherichia coli ATCC 25922.
Experiment [9] relates to Pseudomonas aeruginosa ATCC 9027.
Experiment [10] has as its system Pseudomonas aeruginosa H103.
In experiment [11] the test system is Salmonella enterica serovar Typhimurium.
Experiment [12] concerns Staphylococcus epidermidis.
The test system of experiment [13] is Candida albicans.
Experiment [14] deals with Escherichia coli UB1005.

On to `CC(C)C[C@H](NC(=O)[C@H](Cc1ccccc1)NC(=O)CN)C(=O)N[C@@H](CCCCN)C(=O)N[C@@H](CCCN=C(N)N)C(=O)N[C@@H](Cc1ccccc1)C(=O)N[C@@H](CCCCN)C(=O)N[C@H](C(=O)N[C@@H](CC(C)C)C(=O)N[C@@H](Cc1ccccc1)C(N)=O)[C@@H](C)O` [GFLKRFKTLF], for which the MIC in [1] is 64 µM (≈ 80.4 µg/mL); in experiment [2] it was 8 µM (≈ 10 µg/mL); in experiment [3] it was not below 64 µM; in experiment [4] it was 128 µM (≈ 161 µg/mL); in experiment [5] it was 128 µM (≈ 161 µg/mL); in experiment [6], 128 µM (≈ 161 µg/mL). In addition, the minimal inhibitory concentration (MIC) in experiment [7] is 8 µM (≈ 10 µg/mL); in experiment [8] it was 64 µM (≈ 80.4 µg/mL).

For `CC(C)C[C@H](NC(=O)[C@H](CC(C)C)NC(=O)[C@@H](NC(=O)[C@H](CCCCN)NC(=O)[C@H](Cc1c[nH]c2ccccc12)NC(=O)[C@H](CCCN=C(N)N)NC(=O)[C@H](CCCCN)NC(=O)[C@H](CC(C)C)NC(=O)[C@H](CC(C)C)NC(=O)CN)[C@@H](C)O)C(N)=O` [GLLKRWKTLL], the MIC was 128 µM (≈ 157 µg/mL) in experiment [1]; 16 µM (≈ 19.6 µg/mL) in experiment [2]; not below 128 µM in experiment [3]; 256 µM (≈ 314 µg/mL) in experiment [4]; 256 µM (≈ 314 µg/mL) in experiment [5]; 64 µM (≈ 78.5 µg/mL) in experiment [6]. For the same compound, the figures for the MIC in experiment [7] and in experiment [8] were 4 µM (≈ 4.91 µg/mL) and 64 µM (≈ 78.5 µg/mL), respectively.

Consider `CC[C@H](C)[C@H](NC(=O)[C@H](CCCCN)NC(=O)[C@H](C)NC(=O)[C@H](C)NC(=O)[C@@H](NC(=O)[C@H](C)NC(=O)[C@H](CC(C)C)NC(=O)[C@H](CC(C)C)NC(=O)[C@H](C)NC(=O)[C@H](CCCCN)NC(=O)[C@H](CC(C)C)NC(=O)[C@H](CC(N)=O)NC(=O)[C@@H](N)CC(C)C)C(C)C)C(=O)N[C@@H](CC(C)C)C(N)=O` [LNLKALLAVAAKIL], for which the MIC in experiment [1] was found to be 4 µM (≈ 5.8 µg/mL); in [9], 32 µM (≈ 46.4 µg/mL); in [3] it was 16 µM (≈ 23.2 µg/mL); in experiment [6], 32 µM (≈ 46.4 µg/mL); in experiment [8], 8 µM (≈ 11.6 µg/mL).

Consider `CC[C@H](C)[C@H](NC(=O)[C@H](CCCCN)NC(=O)[C@H](CCCCN)NC(=O)[C@H](C)NC(=O)[C@@H](NC(=O)[C@H](C)NC(=O)[C@H](CC(C)C)NC(=O)[C@H](CC(C)C)NC(=O)[C@H](CCCCN)NC(=O)[C@H](CCCCN)NC(=O)[C@H](CC(C)C)NC(=O)[C@H](CC(N)=O)NC(=O)[C@@H](N)CC(C)C)C(C)C)C(=O)N[C@@H](CC(C)C)C(N)=O` [LNLKKLLAVAKKIL], for which the MIC in [1] is 8 µM (≈ 12.5 µg/mL); in experiment [9], 4 µM (≈ 6.26 µg/mL); in experiment [3], 2 µM (≈ 3.13 µg/mL); in experiment [6] it was 4 µM (≈ 6.26 µg/mL); in experiment [8], 4 µM (≈ 6.26 µg/mL).

As for `CC[C@H](C)[C@H](NC(=O)[C@@H](NC(=O)[C@H](C)NC(=O)[C@@H](NC(=O)[C@H](C)NC(=O)[C@@H](N)CCCN=C(N)N)C(C)C)C(C)C)C(=O)N[C@H](C(=O)N[C@@H](CCCN=C(N)N)C(=O)N[C@@H](CC(C)C)C(=O)N[C@@H](CCCN=C(N)N)C(=O)N[C@@H](CCCN=C(N)N)C(=O)N[C@H](C(N)=O)C(C)C)[C@@H](C)CC` [RAVAVIIRLRRV], the MIC in experiment [10] was found to be 16.2 µM (≈ 23 µg/mL); in experiment [1], 16.2 µM (≈ 23 µg/mL); in experiment [11], 7.74 µM (≈ 11 µg/mL); in [12], 4.22 µM (≈ 6 µg/mL); in experiment [13], 4.22 µM (≈ 6 µg/mL); in experiment [14] it was 7.74 µM (≈ 11 µg/mL).

`CC[C@H](C)[C@H](NC(=O)[C@H](CCCN=C(N)N)NC(=O)[C@H](CCCN=C(N)N)NC(=O)[C@H](CCCN=C(N)N)NC(=O)[C@H](CCCN=C(N)N)NC(=O)[C@@H](NC(=O)[C@@H](N)C(C)C)[C@@H](C)CC)C(=O)N[C@@H](CC(C)C)C(=O)N[C@@H](C)C(=O)N[C@@H](C)C(=O)N[C@H](C(=O)N[C@H](C(N)=O)C(C)C)C(C)C` [VIRRRRILAAVV]: the MIC in experiment [10] is not below 176 µM; in experiment [1], 176 µM (≈ 250 µg/mL); in [11] it was not below 95.7 µM; in experiment [12] it was not below 95.7 µM; in experiment [13], 95.7 µM (≈ 136 µg/mL); in experiment [14] it was not below 95.7 µM.
